Measurements taken from patent US8173788B2, “Peptide having ability to activate cancer-related gene” (priority 2005, dated 2012).
Where no end group is shown, it is not given here.

Assays:
[1] = test system: cancer-related gene; test: DNA chip analysis of cancer-related gene expression after treatment with the HPLC-purified peptide (Table 1); type: cell-based, human
Experimental: (§1) In this diagnosis method, cells or tissues of interest are treated with the peptide of the present invention as in the above-mentioned diagnosis method 1; thus the same specimen as in the diagnosis method 1 can be used. However, in this diagnosis method, the reverse transcription is conducted to generate a cDNA (first-strand cDNA) pool, which is complementary to the mRNA, by using total mRNA extracted from the cells or tissues treated with the peptide as a template and using oligo-dT primer having T7 RNA polymerase promoter region as a reverse primer. Then, after the second-strand cDNA synthesis, in vitro transcription (IVT) was conducted using T7 RNA polymerase and biotinylated rNTPs at 37° C. for 14 hr to yield biotin-labeled cRNA. The amount of the cRNA is measured with a spectrophotometer to confirm that at least […] of cRNA can be yielded.
(§2) The diagnosis method further includes processes for bringing this cRNA labeled with fluorescence dye or the like into contact with cDNA of a cancer-related gene which is immobilized on a plate for hybridization and for measuring the fluorescence intensity.
(§3) Thus, on the basis of the expression condition of a cancer-related gene, a tendency of canceration or malignancy of cancer can be determined.
(§4) An increase or decrease in the expression amount of a cancer-related gene is determined by comparing the expression level in a control. The cells and tissues used as the control are the same as those used in the diagnosis method 1.
(§5) Tables 1 and 2 show examples of cancer-related genes of which expression is increased and immune system genes of which expression is increased or decreased by the treatment with the peptide (HPLC-purified peptide) derived from cell membrane surfaces of human squamous-cell carcinoma cells UTC-8 (Deposition No.: FERM BP-08611, which is deposited with International Patent Organism Depositary, National Institute of Advanced Industrial Science and Technology).
(§6) The present inventor has verified the validity of this diagnosis method using 55000 cancer-related genes. When such a great number of cancer-related genes are used, DNA chip technology is preferably used. In the DNA chip technology, each DNA of the cancer-related genes is immobilized so as to be arrayed on a slide; the above-mentioned labeled cRNA solution is dropped into the slide; the cRNA which is not hybridized is removed by washing; and fluorescence intensity of each gene position is detected by a scanner. The results are compared with the result which is obtained by conducting the same process using the above-mentioned control solution. Thus, cancer-related genes of which expression is increased or decreased when cells or tissues are treated with the peptide of the present invention can be exhaustively analyzed.

[2] = test system: immune system gene; test: DNA chip analysis of immune system gene expression after treatment with the HPLC-purified peptide (Table 2); type: cell-based, human
Experimental: as §1, §2, §3, §4, §5, §6

For “QPQFGRRMESK [HPLC-purified peptide, peptide (HPLC-purified peptide) derived from cell membrane surfaces of human squamous-cell carcinoma cells UTC-8]”, the “Fold Change” value ([1]; gene AF040963 MXD4) was 2.357, the “Fold Change” value ([1]; gene D16431 HDGF) was 3.596 and the “Fold Change” value ([1]; gene D26120 splicing factor 1) was 2.833. The “Fold Change” value ([1]; gene K03218 SRC, v-src sarcoma viral oncogene homolog) was 3.912, the “Fold Change” value ([1]; gene M13150 MAS1) was 2.07 and the “Fold Change” value ([1]; gene M32977 VEGF) was 2.457. For the same sequence, the “Fold Change” value ([1]; gene M60119 HIVEP2) was 2.205, the “Fold Change” value ([1]; gene M62829 EGR1) was 2.105 and the “Fold Change” value ([1]; gene M83221 RELB) was 2.351. The “Fold Change” value ([1]; gene M95712 BRAF) was 3.034, the “Fold Change” value ([1]; gene NM_000753 PDE3B) was 2.741 and the “Fold Change” value ([1]; gene NM_001201 BMP3) was 3.736. The “Fold Change” value ([1]; gene NM_001402 EEF1A1) was 2.405, the “Fold Change” value ([1]; gene NM_001419 ELAVL1) was 2.95 and the “Fold Change” value ([1]; gene NM_001511 CXCL1) was 2.477. For the same sequence, the “Fold Change” value ([1]; gene NM_001570 IRAK2) was 2.24, the “Fold Change” value ([1]; gene NM_001665 ARHG) was 2.111 and the “Fold Change” value ([1]; gene NM_002357 MAD) was 2.397. The “Fold Change” value ([1]; gene NM_002613 PDPK1) was 2.866, the “Fold Change” value ([1]; gene NM_002712 PPP1R7) was 2.697 and the “Fold Change” value ([1]; gene NM_003017 SFRS3) was 2.742. For the same sequence, the “Fold Change” value ([1]; gene NM_003685 KHSRP) was 2.04, the “Fold Change” value ([1]; gene NM_004204 PIGQ) was 2.756 and the “Fold Change” value ([1]; gene NM_004218 RAB11B, member RAS oncogene family) was 2.102. For the same sequence, the “Fold Change” value ([1]; gene NM_004723 ARHGEF2) was 2.209, the “Fold Change” value ([1]; gene NM_004906 WTAP) was 2.544 and the “Fold Change” value ([1]; gene NM_005207 CRKL) was 2.497. For the same sequence, the “Fold Change” value ([1]; gene NM_005524 HES1) was 2.395, the “Fold Change” value ([1]; gene NM_005730 CTDSP2, conserved gene amplified in osteosarcoma) was 2.387 and the “Fold Change” value ([1]; gene NM_005850 SF3B4) was 3.023. The “Fold Change” value ([1]; gene NM_005937 MLLT6) was 2.996, the “Fold Change” value ([1]; gene NM_006191 PA2G4) was 2.002 and the “Fold Change” value ([1]; gene NM_006318 putative glialblastoma cell differentiation-related) was 2.098. The “Fold Change” value ([1]; gene NM_006694 JTB) was 2.019, the “Fold Change” value ([1]; gene NM_006716 ASK, activator of S phase kinase) was 2.23 and the “Fold Change” value ([1]; gene NM_006842 splicing factor 3b, subunit 2, 145 kDa) was 2.245. The “Fold Change” value ([1]; gene NM_007040 E1B-AP5) was 2.433, the “Fold Change” value ([1]; gene NM_007279 U2AF2) was 2.494 and the “Fold Change” value ([1]; gene NM_012103 AUP1) was 2.46. For the same sequence, the “Fold Change” value ([1]; gene NM_014308 P101-PI3K) was 2.849, the “Fold Change” value ([1]; gene NM_015714 G0S2) was 2.481 and the “Fold Change” value ([1]; gene NM_016263 FZR1) was 2.466. The “Fold Change” value ([1]; gene U33819 MAZ) was 2.093, the “Fold Change” value ([1]; gene X03663 CSF1R) was 2.781 and the “Fold Change” value ([1]; gene X54936 PGF) was 3.576. For the same sequence, the “Fold Change” value ([1]; gene X61498 NFKB2) was 2.833, the “Fold Change” value ([1]; gene X78710 MTF1) was 2.001 and the TDP ([2]; enhanced gene D10202 platelet-activating factor receptor) was 1.506. It also gave a TDP ([2]; enhanced gene J04130 chemokine (C-C motif) ligand 4) of 7.341, a TDP ([2]; enhanced gene K02770 interleukin 1, beta) of 11.69 and a TDP ([2]; enhanced gene NM_000173 glycoprotein Ib (platelet), alpha polypeptide) of 1.529. For the same sequence, the TDP ([2]; enhanced gene NM_000211 integrin, beta 2) was 3.326, the TDP ([2]; enhanced gene NM_001733 complement component 1, r subcomponent) was 1.543 and the TDP ([2]; enhanced gene NM_002000 Fc fragment of IgA, receptor for) was 1.871. It also gave a TDP ([2]; enhanced gene NM_002969 mitogen-activated protein kinase 12) of 1.53, a TDP ([2]; enhanced gene NM_002983 chemokine (C-C motif) ligand 3) of 1.542 and a TDP ([2]; enhanced gene NM_003199 transcription factor 4) of 1.621. For the same sequence, the TDP ([2]; enhanced gene NM_006186 nuclear receptor subfamily 4, group A, member 2) was 2.06, the TDP ([2]; enhanced gene X03663 colony stimulating factor 1 receptor) was 2.781 and the TDP ([2]; suppressed gene K01171 major histocompatibility complex, class II, DR alpha) was 0.319. For the same sequence, the TDP ([2]; suppressed gene NM_000397 cytochrome b-245, beta polypeptide) was 0.631, the TDP ([2]; suppressed gene NM_001311 cysteine-rich protein 1 (intestinal)) was 0.561 and the TDP ([2]; suppressed gene NM_001776 ectonucleoside triphosphate diphosphohydrolase 1) was 0.646. It also gave a TDP ([2]; suppressed gene NM_001783 CD79A antigen) of 0.4, a TDP ([2]; suppressed gene NM_002118 major histocompatibility complex, class II, DM beta) of 0.335 and a TDP ([2]; suppressed gene NM_002121 major histocompatibility complex, class II, DP beta 1) of 0.633. It also gave a TDP ([2]; suppressed gene NM_002123 major histocompatibility complex, class II, DQ beta 1) of 0.328, a TDP ([2]; suppressed gene NM_002124 major histocompatibility complex, class II, DR beta 1) of 0.502 and a TDP ([2]; suppressed gene NM_002258 killer cell lectin-like receptor subfamily B, member 1) of 0.653. For the same sequence, the TDP ([2]; suppressed gene NM_002260 killer cell lectin-like receptor subfamily C, member 2) was 0.603, the TDP ([2]; suppressed gene NM_003891 protein Z, vitamin K-dependent plasma glycoprotein) was 0.618 and the TDP ([2]; suppressed gene NM_004106 Fc fragment of IgE, high affinity I, receptor for, gamma polypeptide) was 0.382. The TDP ([2]; suppressed gene NM_004133 hepatocyte nuclear factor 4, gamma) was 0.635, the TDP ([2]; suppressed gene NM_004528 microsomal glutathione S-transferase 3) was 0.561 and the TDP ([2]; suppressed gene NM_004636 sema domain, (semaphorin) 3B) was 0.459. The TDP ([2]; suppressed gene NM_004750 cytokine receptor-like factor 1) was 0.626, the TDP ([2]; suppressed gene NM_005545 immunoglobulin superfamily containing leucine-rich repeat) was 0.579 and the TDP ([2]; suppressed gene NM_006120 major histocompatibility complex, class II, DM alpha) was 0.298. For the same sequence, the TDP ([2]; suppressed gene NM_006864 leukocyte immunoglobulin-like receptor, subfamily B, member 3) was 0.662, the TDP ([2]; suppressed gene NM_007052 NADPH oxidase 1) was 0.662 and the TDP ([2]; suppressed gene NM_014442 sialic acid binding Ig-like lectin 8) was 0.641. The TDP ([2]; suppressed gene NM_016523 killer cell lectin-like receptor subfamily F, member 1) was 0.644, the TDP ([2]; suppressed gene NM_018661 defensin, beta 103) was 0.528 and the TDP ([2]; suppressed gene U77604 microsomal glutathione S-transferase 2) was 0.349. It also gave a TDP ([2]; suppressed gene Y00815 protein tyrosine phosphatase, receptor type, F) of 0.475.
